Patent publication US20160029628A1, “COMPOUNDS, COMPOSITIONS, AND METHODS FOR REPELLING AN INSECT FROM AN AREA,ARTICLE, AND/OR STRUCTURE” (BAYER CROPSCIENCE LP, priority 2013, published 2016)

Key:
honeybees = assay: Honeybee repellency at feeding stations, repellent in 50% sucrose solution; assay type: in vivo
Experimental: FIG. 1 describes the feeding station arrangement (A and B) for the honeybee repulsion experiments described herein. As set forth in FIG. 1, panel (A) sets forth the bee cage positions on the left portion of panel (A) with the randomized feeding station positions on the right portion of panel (A). Panel (B) sets forth an alignment of the randomized feeding station positions with a distance of two meters between feeding stations. A total of eight feeding stations were evaluated at a ten meter distance in front of the respective bee hives. The feeding stations were placed two meters apart from one another.
Honeybees were trained to deep feeders (eight positions), each containing a 50% sucrose solution for one day. After the honeybees were trained to each feeder, the 50% sucrose feeder at randomized positions 1-8 was replaced with a shallow feeder containing a combination of repelling compounds and a 50% sucrose solution according to Table 3. In accordance with FIGS. 5 and 6, 2% by weight of Camphor oil (T4), Ajowan oil (T5), Camphor powder (T6), Rosemary oil (T7), and 2-Decanone (T8) in combination with a 50% sucrose treatment were added to feeders on day two.
Table 3 describes active agents evaluated for bee repulsion and their randomized feeding station positions. As described in Table 3, T1 (control), T2 (control), T3 (control), T4 (Camphor oil), T5 (Ajowan oil), T6 (Camphor powder), T7 (Rosemary oil), and T8 (2-Decanone).
FIG. 5 evaluates the number of bees visiting a respective feed station over a time interval. FIG. 6 sets forth the mean number of honeybees visiting feeding station over a period of four hours.

[1] = Stability test of Poncho 600 with α-terpineol, clothianidin content by HPLC; assay type: physicochemical; details: combined with alpha-terpineol; up to 54° C. for eight days
Experimental: Table 5 describes a stability test with a combination of α-terpineol and Poncho 600 evaluated at room temperature, 40° C., and 54° C. at zero time, 2 days, and 8 days as confirmed by HPLC.

[2] = Stability test of Poncho 600 with Eugenol, clothianidin content by HPLC; assay type: physicochemical; details: combined with Eugenol; up to 54° C. for seven days
Experimental: Table 4 describes a stability test with a combination of Eugenol and Poncho evaluated at room temperature, 40° C., and 54° C. at zero time, 3 days, and 7 days as confirmed by high performance liquid chromatography (HPLC).

SMILES	repellency over the full 4 hour assessment period (honeybees; 2% by weight with 50% sucrose, 4 hours)	repellency at 24 hours (honeybees; 2% by weight with 50% sucrose)	repellency at 24 hours (honeybees; 2% by weight with 50% sucrose, listed as 2-Decanone)	repellent effect relative to comparators (honeybees; relative to camphor oil, ajowan oil, camphor powder, or rosemary oil, FIGS. 5-6)	chemical stability of clothianidin content [1]	chemical stability of clothianidin content [2]
CCCCCCCCC(C)=O [Compound 2-decanone, 2-decanone]	highly repellent	still repellent	exhibited repellency	larger repellent effect	–	–
CN/C(=N\[N+](=O)[O-])NCc1cnc(Cl)s1 [clothianidin]	–	–	–	–	exhibited chemical stability	exhibited chemical stability
